The numbers were not newly measured in patent US9102664B2, “Process for the preparation of triazole antifungal drug, its intermediates and polymorphs thereof” (MSN Laboratories Limited, priority 2011, dated 2015), which cites them from elsewhere.

The conditions of data set [1]: under the conditions investigated in WO 99/18097.
For data set [2] the following is noted: produced per U.S. Pat. No. 5,661,151 using 6N HCl in methanol.

In the case of `CC[C@@H]([C@H](C)O)n1ncn(-c2ccc(N3CCN(c4ccc(OC[C@@H]5CO[C@@](Cn6cncn6)(c6ccc(F)cc6F)C5)cc4)CC3)cc2)c1=O` [form II, posaconazole], in data set [1], the “stability of crystalline form” value is on record as “unstable”.

Take `CC[C@@H]([C@H](C)O)n1ncn(-c2ccc(N3CCN(c4ccc(OC[C@@H]5CO[C@@](Cn6cncn6)(c6ccc(F)cc6F)C5)cc4)CC3)cc2)c1=O` [Amorphous form of posaconazole, posaconazole]: in data set [2], the “stability of amorphous form” value was “not stable”.
